Assay results reported in patent US8361968B2 (Takeda Pharmaceutical Company Limited, priority 2002, dated 2013).
Numbered stars: 1 amine (or outer) side, 2 acyl side, 3 side chain; on linkers, the order of the positions; unused ones are H or OH. Square brackets hold non-standard residues; d marks the D form. Peptide text beside a SMILES is read from it. * marks the point of attachment. NαAmidinoTrp = N=C(N)N[C@@H](Cc1c[nH]c2ccccc12)C(=O)*; X7 = CNC(=N)NCCCC[C@H](N[*:1])C(=O)[*:2]; X8 = CNC(=N)NCC[C@H](N[*:1])C(=O)[*:2]; Cyclohexanecarbonyl = O=C(C1CCCCC1)*; Arg(Me) = CNC(=N)NCCC[C@H](N)C(=O)O; Hydrocinnamoyl = O=C(CCc1ccccc1)*; 2Pal = N[C@@H](Cc1ccccn1)C(=O)O; d4Pal = N[C@H](Cc1ccncc1)C(=O)O; Orn = NCCC[C@H](N)C(=O)O; azaGly = NNC(=O)O

Columns and labels:
hOT7T175 [1] = target: T1, hOT7T175 (Homo sapiens, UniProt Q969F8, L364H); assay: Intracellular Ca ion level-increasing activity using FLIPR in hOT7T175/CHO; format: cell-based; set-up: expressed in transfected cells; host or cells: CHO/dhfr- cells, obtained from ATCC; conditions: relative, Metastin (1-54) = 1
hOT7T175 [2] = target: T1, hOT7T175; assay: hOT7T175 receptor binding activity: binding inhibition of Cy-5-labeled metastin (40-54) on hOT7T175-expressed CHO cells; set-up: expressed in transfected cells; host or cells: CHO cells
Description: Assay for hOT7T175 Receptor Binding Activity
h0T7T175-Expressed CHO cells were cultured in MEM-cc medium (nucleic acid-free) containing 10% dialyzed serum. The medium was removed and the adherent cells were washed with PBS. Then, PBS containing 5 mM EDTA was added and the cells were scraped from a flask with a cell scraper. […] To each well of a 96-Well Black Clear Bottom Plate (Applied Biosystems, Inc.), 10 μL of assay buffer containing 1% dimethylsulfoxide was added to examine total binding, 10 μL of 10 μM non-labeled peptide (having the same amino acid sequence as that of the labeled one) solution diluted with assay buffer to examine non-specific binding, and 10 μL of a test compound diluted with assay buffer to examine the binding inhibition activity of the test compound, respectively. Furthermore, 90 μL each of the cell suspension was dispensed to each well. […] The specific binding is a value obtained by subtracting the non-specific binding from the total binding.

T1 sequence (Q969F8 whole entry L364H): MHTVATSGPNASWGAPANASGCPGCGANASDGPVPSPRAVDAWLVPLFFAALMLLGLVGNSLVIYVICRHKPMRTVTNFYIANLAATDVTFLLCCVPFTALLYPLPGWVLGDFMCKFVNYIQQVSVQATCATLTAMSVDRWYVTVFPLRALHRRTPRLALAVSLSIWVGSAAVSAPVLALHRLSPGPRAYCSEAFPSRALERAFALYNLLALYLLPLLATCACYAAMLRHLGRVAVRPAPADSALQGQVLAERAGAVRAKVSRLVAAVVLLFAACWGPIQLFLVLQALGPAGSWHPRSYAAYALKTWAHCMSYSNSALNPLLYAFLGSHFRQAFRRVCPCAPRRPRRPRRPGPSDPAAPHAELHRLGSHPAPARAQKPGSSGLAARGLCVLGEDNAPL

CNC(=N)NCC[C@H](NC(=O)[C@H](CC(C)C)NC(=O)CNC(=O)[C@H](Cc1ccccc1)NC(=O)[C@H](CO)NC(=O)[C@H](CC(N)=O)NC(=O)[C@H](Cc1c[nH]c2ccccc12)NC(=O)[C@H](CC(N)=O)NC(=O)[C@@H](N)Cc1ccc(O)cc1)C(=O)N[C@@H](Cc1ccccc1)C(N)=O [Compound No. 311] (H-YNWNSFGL[X8]F-NH2)
Specific Activity (intracellular Ca ion level-increasing activity) (hOT7T175 [1]): 1
IC50 (hOT7T175 [2]): 470 nM

CNC(=N)NCCC[C@H](NC(=O)[C@H](CC(C)C)NC(=O)NNC(=O)[C@H](Cc1ccccc1)NC(=O)[C@H](CO)NC(=O)[C@H](CC(N)=O)NC(=O)CCc1ccccc1)C(=O)N[C@@H](Cc1ccccc1)C(N)=O [Compound No. 269, 3-Phenylpropionyl-Asn-Ser-Phe-AzaGly-Leu-Arg(Me)-Phe-NH2] (Hydrocinnamoyl-NSF[azaGly]L[Arg(Me)]F-NH2)
Specific Activity (intracellular Ca ion level-increasing activity) (hOT7T175 [1]): 3
IC50 (hOT7T175 [2]): 470 nM

CC(C)C[C@H](NC(=O)CNC(=O)[C@H](Cc1ccccc1)NC(=O)[C@H](CO)NC(=O)[C@H](CC(N)=O)NC(=O)[C@H](Cc1c[nH]c2ccccc12)NC(=O)[C@H](CC(N)=O)NC(=O)[C@@H](N)Cc1ccc(O)cc1)C(=O)N[C@@H](CCCNC(=N)N)C(=O)N[C@@H](Cc1ccc(Cl)c(Cl)c1)C(N)=O [Compound No. 199]
Specific Activity (intracellular Ca ion level-increasing activity) (hOT7T175 [1]): 3
IC50 (hOT7T175 [2]): 470 nM

CC(C)C[C@H](NC(=O)CNC(=O)[C@H](Cc1ccccc1)NC(=O)[C@H](CO)NC(=O)[C@H](CC(N)=O)NC(=O)[C@H](Cc1c[nH]c2ccccc12)NC(=O)[C@H](CC(N)=O)NC(=O)[C@@H](N)Cc1ccc(O)cc1)C(=O)N[C@@H](CCCN)C(=O)N[C@@H](Cc1ccccc1)C(N)=O [Compound No. 314] (H-YNWNSFGL[Orn]F-NH2)
Specific Activity (intracellular Ca ion level-increasing activity) (hOT7T175 [1]): 1
IC50 (hOT7T175 [2]): 470 nM

CNC(=N)NCCC[C@H](NC(=O)[C@H](CC(C)C)NC(=O)NNC(=O)[C@H](Cc1ccccc1)NC(=O)[C@H](CO)NC(=O)[C@H](CC(N)=O)NC(=O)C1CCCCC1)C(=O)N[C@@H](Cc1ccccc1)C(N)=O [Compound No. 278, Cyclohexanecarbonyl-Asn-Ser-Phe-AzaGly-Leu-Arg(Me)-Phe-NH2] (Cyclohexanecarbonyl-NSF[azaGly]L[Arg(Me)]F-NH2)
Specific Activity (intracellular Ca ion level-increasing activity) (hOT7T175 [1]): 2
IC50 (hOT7T175 [2]): 110 nM

CNC(=N)NCCC[C@H](NC(=O)[C@H](CC(C)C)NC(=O)CNC(=O)[C@H](Cc1ccccn1)NC(=O)[C@H](CO)NC(=O)[C@H](CC(N)=O)NC(=O)[C@H](Cc1c[nH]c2ccccc12)NC(=O)[C@H](CC(N)=O)NC(=O)[C@H](N)Cc1ccc(O)cc1)C(=O)N[C@@H](Cc1ccccc1)C(N)=O [Compound No. 281, D-Tyr-Asn-Trp-Asn-Ser-Pya(2)-Gly-Leu-Arg(Me)-Phe-NH2] (H-[dY]NWNS[2Pal]GL[Arg(Me)]F-NH2)
Specific Activity (intracellular Ca ion level-increasing activity) (hOT7T175 [1]): ½
IC50 (hOT7T175 [2]): 230 nM

CNC(=N)NCCC[C@H](NC(=O)[C@H](CC(C)C)NC(=O)NNC(=O)[C@H](Cc1ccccc1)NC(=O)[C@H](CO)NC(=O)[C@H](CC(N)=O)NC(=O)[C@H](Cc1c[nH]c2ccccc12)NC(=O)[C@H](N)Cc1ccc(O)cc1)C(=O)N[C@@H](Cc1ccccc1)C(N)=O [Compound No. 222, D-Tyr-Trp-Asn-Ser-Phe-AzaGly-Leu-Arg(Me)-Phe-NH2] (H-[dY]WNSF[azaGly]L[Arg(Me)]F-NH2)
Specific Activity (intracellular Ca ion level-increasing activity) (hOT7T175 [1]): 5
IC50 (hOT7T175 [2]): 33 nM

CC(C)C[C@H](NC(=O)CNC(=O)[C@H](Cc1ccccc1)NC(=O)[C@H](CO)NC(=O)[C@H](CC(N)=O)NC(=O)[C@H](Cc1c[nH]c2ccccc12)NC(=O)[C@H](CC(N)=O)NC(=O)[C@@H](N)Cc1ccc(O)cc1)C(=O)N[C@@H](CCCNC(=N)N)C(=O)N[C@@H](Cc1c(F)c(F)c(F)c(F)c1F)C(N)=O [Compound No. 111]
Specific Activity (intracellular Ca ion level-increasing activity) (hOT7T175 [1]): 3
IC50 (hOT7T175 [2]): 140 nM

CNC(=N)NCCCC[C@H](NC(=O)[C@H](CC(C)C)NC(=O)CNC(=O)[C@H](Cc1ccccc1)NC(=O)[C@H](CO)NC(=O)[C@H](CC(N)=O)NC(=O)[C@H](Cc1c[nH]c2ccccc12)NC(=O)[C@H](CC(N)=O)NC(=O)[C@@H](N)Cc1ccc(O)cc1)C(=O)N[C@@H](Cc1ccccc1)C(N)=O [Compound No. 312] (H-YNWNSFGL[X7]F-NH2)
Specific Activity (intracellular Ca ion level-increasing activity) (hOT7T175 [1]): 3
IC50 (hOT7T175 [2]): 100 nM

CNC(=N)NCCC[C@H](NC(=O)[C@H](CC(C)C)NC(=O)NNC(=O)[C@H](Cc1ccccc1)NC(=O)[C@H](CO)NC(=O)[C@H](CC(N)=O)NC(=O)[C@@H](N)Cc1c[nH]c2ccccc12)C(=O)N[C@@H](Cc1ccccc1)C(N)=O [Compound No. 271, Trp-Asn-Ser-Phe-AzaGly-Leu-Arg(Me)-Phe-NH2] (H-WNSF[azaGly]L[Arg(Me)]F-NH2; N-terminus assumed)
Specific Activity (intracellular Ca ion level-increasing activity) (hOT7T175 [1]): 1
IC50 (hOT7T175 [2]): 120 nM

CNC(=N)NCCC[C@H](NC(=O)[C@H](CC(C)C)NC(=O)NNC(=O)[C@H](Cc1ccccc1)NC(=O)[C@H](CO)NC(=O)[C@H](CC(N)=O)NC(=O)[C@H](Cc1c[nH]c2ccccc12)NC(=N)N)C(=O)N[C@@H](Cc1ccccc1)C(N)=O [Compound No. 273, Amidino-Trp-Asn-Ser-Phe-AzaGly-Leu-Arg(Me)-Phe-NH2] (NαAmidinoTrp-NSF[azaGly]L[Arg(Me)]F-NH2)
Specific Activity (intracellular Ca ion level-increasing activity) (hOT7T175 [1]): 5
IC50 (hOT7T175 [2]): 300 nM

CC(C)C[C@H](NC(=O)CNC(=O)[C@H](Cc1ccccc1)NC(=O)[C@H](CO)NC(=O)[C@H](CC(N)=O)NC(=O)[C@H](Cc1c[nH]c2ccccc12)NC(=O)[C@H](CC(=O)O)NC(=O)[C@@H](N)Cc1ccc(O)cc1)C(=O)N[C@@H](CCCNC(=N)N)C(=O)N[C@@H](Cc1ccccc1)C(N)=O [Compound No. 57] (H-YDWNSFGLRF-NH2)
IC50 (hOT7T175 [2]): 100 nM

CNC(N)=NCCC[C@H](NC(=O)[C@H](CC(C)C)NC(=O)NNC(=O)[C@H](Cc1ccccc1)NC(=O)[C@H](CO)NC(=O)[C@H](CC(N)=O)NC(=O)[C@@H](Cc1ccncc1)NC(=O)[C@H](CC(N)=O)NC(=O)[C@H](N)Cc1ccc(O)cc1)C(=O)N[C@@H](Cc1ccccc1)C(N)=O [Compound No. 302, D-Tyr-Asn-D-Pya(4)-Asn-Ser-Phe-AzaGly-Leu-Arg(Me)-Phe-NH2] (H-[dY]N[d4Pal]NSF[azaGly]L[Arg(Me)]F-NH2)
IC50 (hOT7T175 [2]): 7.7 nM

CC(C)C[C@H](NC(=O)CNC(=O)[C@H](Cc1ccccc1)NC(=O)[C@H](CO)NC(=O)[C@H](CC(N)=O)NC(=O)[C@H](CC(C)C)NC(=O)[C@H](CC(N)=O)NC(=O)[C@@H](N)Cc1ccc(O)cc1)C(=O)N[C@@H](CCCNC(=N)N)C(=O)N[C@@H](Cc1ccccc1)C(N)=O [Compound No. 68] (H-YNLNSFGLRF-NH2)
IC50 (hOT7T175 [2]): 7.7 nM

C/N=C(/NC)NCCC[C@H](NC(=O)[C@H](CC(C)C)NC(=O)CNC(=O)[C@H](Cc1ccccc1)NC(=O)[C@H](CO)NC(=O)[C@H](CC(N)=O)NC(=O)[C@H](Cc1c[nH]c2ccccc12)NC(=O)[C@H](CC(N)=O)NC(=O)[C@@H](N)Cc1ccc(O)cc1)C(=O)N[C@@H](Cc1ccccc1)C(N)=O [Compound No. 129]
IC50 (hOT7T175 [2]): 83 nM

CC(C)C[C@H](NC(=O)CNC(=O)[C@H](Cc1ccccc1)NC(=O)[C@H](CO)NC(=O)[C@H](CC(N)=O)NC(=O)[C@H](CO)NC(=O)[C@H](CC(N)=O)NC(=O)[C@@H](N)Cc1ccc(O)cc1)C(=O)N[C@@H](CCCNC(=N)N)C(=O)N[C@@H](Cc1ccccc1)C(N)=O [Compound No. 69] (H-YNSNSFGLRF-NH2)
IC50 (hOT7T175 [2]): 83 nM
